Test results from patent US7342027B2 (Yuhan Corporation, priority 2002, dated 2008).
Structures can show the parent of a compound that is named as a salt.

Target: T1, Recombinant human cathepsin K (Homo sapiens, UniProt P43235)
T1 construct: made in house
T1 sequence (P43235 115-329): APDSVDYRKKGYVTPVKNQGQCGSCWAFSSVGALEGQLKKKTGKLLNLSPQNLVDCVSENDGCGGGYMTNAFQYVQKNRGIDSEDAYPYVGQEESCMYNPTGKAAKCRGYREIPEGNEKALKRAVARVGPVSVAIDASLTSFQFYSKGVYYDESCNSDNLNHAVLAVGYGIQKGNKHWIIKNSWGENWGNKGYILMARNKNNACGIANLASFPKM
Test: Inhibition of cathepsin K activity (Z-Phe-Arg-AMC fluorescence assay)
Format: biochemical
Conditions: 25 uM Z-Phe-Arg-AMC, pH 5.5, 1 hour at 37° C.
Method: Test 1: Inhibition of Cathepsin K Activity
Recombinant human cathepsin K was prepared in accordance with Biol, Pharm. Bull, 19(8), 1026-1031 (1996) and J. Biol. Chem. 271, 2126-2132 (1996). Stock solutions of 2.5 mM Z-Phe-Arg-AMC (BACHEM, 1-1160) and all inhibitors were prepared in dimethyl sulfoxide. In vitro assays for cathepsin K were conducted with 25 uM Z-Phe-Arg-AMC as a substrate at pH 5.5 in 100 mM Na acetate buffer containing 20 mM cysteine and 5 mM EDTA in the presence of 2% final concentration of DMSO. Reaction was initiated by the addition of enzyme to samples, which were then incubated for 1 hour at 37° C. The fluorescence was monitored at 460 nm (excitation wavelength 360 nm) using fluorescence plate reader.
The concentrations of the test compounds, which inhibit 50% of cathepsin K activity, are represented as IC50 in Table 1.

| SMILES | IC50 |
| --- | --- |
| CCS(=O)(=O)c1ccccc1N1CCC(NC(=O)C2(NC(=O)c3cc(C)on3)CCCCC2)C(=O)C1 (stereo not shown) [Example 107, 4-[N-[1-[N-(5-methyl-isoxazol-3-ylcarbonyl)amino]cyclohexanecarbonyl]amino]-1-(2-ethanesulfonylphenyl)piperidin-3-one] | 8.07 nM |
| O=C(NC1(C(=O)NC2CCN(c3cc(C(F)(F)F)ccc3Cl)CC2=O)CCCCC1)c1cc2ccccc2s1 (stereo not shown) [Example 130, 4-[N-[1-[N-(benzothiophen-2-ylcarbonyl)amino]cyclohexanecarbonyl]amino]-1-(2-chloro-5-trifluoromethylphenyl)piperidin-3-one] | 1.2 nM |
| CS(=O)(=O)c1ccc(N2CCC(NC(=O)C3(NC(=O)c4cc5ccccc5o4)CCCCC3)C(=O)C2)cc1 (stereo not shown) [Example 5, 4-[N-[1-[N-(benzofuran-2-ylcarbonyl)amino]cyclohexanecarbonyl]amino]-1-(4-methanesulfonylphenyl)piperidin-3-one] | 5.05 nM |
| CS(=O)(=O)c1ccccc1N1CCC(NC(=O)C2(NC(=O)c3ccc(OCCN4CCOCC4)cc3)CCCCC2)C(=O)C1 (stereo not shown) [Example 158, 4-[N-[1-[N-(4-(2-morpholinethoxy)benzoyl)amino]cyclohexanecarbonyl]amino]-1-(2-methanesulfonylphenyl)piperidin-3-one hydrochloride] | 3.15 nM |
| C[S+]([O-])c1ccccc1N1CCC(NC(=O)C2(NC(=O)c3cc4ccccc4o3)CCCCC2)C(=O)C1 (stereo not shown) [Example 68] | 3.12 nM |
| N#Cc1c(F)cccc1N1CCC(NC(=O)C2(NC(=O)c3cc4ccccc4o3)CCCCC2)C(=O)C1 (stereo not shown) [Example 8, 4-[N-[1-[N-(benzofuran-2-ylcarbonyl)amino]cyclohexanecarbonyl]amino]-1-(2-cyano-3-fluorophenyl)piperidin-3-one] | 10.4 nM |
| CS(=O)(=O)c1ccccc1N1CCC(NC(=O)C2(NC(=O)c3ccc(Cl)s3)CCCCC2)C(=O)C1 (stereo not shown) [Example 114, 4-[N-[1-[N-(5-chloro-thiophen-2-ylcarbonyl)amino]cyclohexanecarbonyl]amino]-1-(2-methanesulfonylphenyl)piperidin-3-one] | 1.93 nM |
| CS(=O)(=O)c1ccccc1N1CCC(NC(=O)C2(NC(=O)c3cc4cc(OCCN5CCCC5)ccc4o3)CCCCC2)C(=O)C1 (stereo not shown) [Example 165, 4-[N-[1-[N-(5-(2-pyrrolidinethoxy)benzofuran-2-ylcarbonyl)amino]cyclohexanecarbonyl]amino]-1-(2-methanesulfonylphenyl)piperidin-3-one hydrochloride] | 1.63 nM |
| Cc1ccc(C(=O)NC2(C(=O)NC3CCN(c4ccccc4S(C)(=O)=O)CC3=O)CCCCC2)o1 (stereo not shown) [Example 123, 4-[N-[1-[N-(5-methyl-furan-2-ylcarbonyl)amino]cyclohexanecarbonyl]amino]-1-(2-methanesulfonylphenyl)piperidin-3-one] | 4.97 nM |
| CC(C)[S+]([O-])c1ccccc1N1CCC(NC(=O)C2(NC(=O)c3cc4ccccc4o3)CCCCC2)C(=O)C1 (stereo not shown) [Example 70, 4-[N-[1-[N-(benzofuran-2-ylcarbonyl)amino]cyclohexanecarbonyl]amino]-1-(2-isopropylsulfinylphenyl)piperidin-3-one] | 1.73 nM |
| O=C(NC1(C(=O)NC2CCN(c3ccccc3NC(=O)C3CC3)CC2=O)CCCCC1)c1cc2ccccc2o1 (stereo not shown) [Example 53, 4-[N-[1-[N-(benzofuran-2-ylcarbonyl)amino]cyclohexanecarbonyl]amino]-1-[2-[N-(cyclopropanecarbonyl)amino]phenyl]piperidin-3-one] | 1.22 nM |
| O=C(NC1(C(=O)NC2CCN(c3ccccc3N3CCCCC3=O)CC2=O)CCCCC1)c1cc2ccccc2o1 (stereo not shown) [Example 45, 4-[N-[1-[N-(benzofuran-2-ylcarbonyl)amino]cyclohexanecarbonyl]amino]-1-[2-(piperidin-2-one-1-yl)phenyl]piperidin-3-one] | 6.8 nM |
| CC(C)(C)OC(=O)c1ccccc1N1CCC(NC(=O)C2(NC(=O)c3cc4ccccc4s3)CCCCC2)C(=O)C1 (stereo not shown) [Example 129, 4-[N-[1-[N-(benzothiophen-2-ylcarbonyl)amino]cyclohexanecarbonyl]amino]-1-(2-tert-butoxycarbonylphenyl)piperidin-3-one] | 0.45 nM |
| COC(=O)Nc1ccccc1N1CCC(NC(=O)C2(NC(=O)c3cc4ccccc4o3)CCCCC2)C(=O)C1 (stereo not shown) [Example 49, 4-[N-[1-[N-(benzofuran-2-ylcarbonyl)amino]cyclohexanecarbonyl]amino]-1-[2-[N-(methoxycarbonyl)amino]phenyl]piperidin-3-one] | 0.45 nM |
| O=C(NC1(C(=O)NC2CCN(c3ccc(F)cc3N3CCCC3=O)CC2=O)CCCCC1)c1ccco1 (stereo not shown) [Example 95, 4-[N-[1-[N-(furan-2-ylcarbonyl)amino]cyclohexanecarbonyl]amino]-1-[4-fluoro-2-(pyrrolidin-2-one-1-yl)phenyl]piperidin-3-one] | 10.8 nM |
| Cc1occc1C(=O)NC1(C(=O)NC2CCN(c3ccccc3S(C)(=O)=O)CC2=O)CCCCC1 (stereo not shown) [Example 122, 4-[N-[1-[N-(2-methyl-furan-3-ylcarbonyl)amino]cyclohexanecarbonyl]amino]-1-(2-methanesulfonylphenyl)piperidin-3-one] | 3.87 nM |
| O=Cc1c(Cl)cccc1N1CCC(NC(=O)C2(NC(=O)c3cc4ccccc4o3)CCCCC2)C(=O)C1 (stereo not shown) [Example 19, 4-[N-[1-[N-(benzofuran-2-ylcarbonyl)amino]cyclohexanecarbonyl]amino]-1-(3-chloro-2-formylphenyl)piperidin-3-one] | 4.41 nM |
| CCN(CC)c1ccc(C(=O)NC2(C(=O)NC3CCN(c4ccc(F)cc4S(C)(=O)=O)CC3=O)CCCCC2)cc1 (stereo not shown) [Example 172, 4-[N-[1-[N-(4-(diethylamino)benzoyl)amino]cyclohexanecarbonyl]amino]-1-(4-fluoro-2-methanesulfonylphenyl)piperidin-3-one] | 0.58 nM |
| CCN(CC)c1ccc(C(=O)NC2(C(=O)NC3CCN(c4ccc(F)cc4S(C)(=O)=O)CC3=O)CCCCC2)cc1 (stereo not shown) [Example 174, 4-[N-[1-[N-(4-(diethylamino)benzoyl)amino]cyclohexanecarbonyl]amino]-1-(4-fluoro-2-methanesulfonylphenyl)piperidin-3-one hydrochloride] | 1 nM |
| CC(=O)Nc1ccccc1N1CCC(NC(=O)C2(NC(=O)c3cc4ccccc4o3)CCCCC2)C(=O)C1 (stereo not shown) [Example 56, 4-[N-[1-[N-(benzofuran-2-ylcarbonyl)amino]cyclohexanecarbonyl]amino]-1-[2-[N-(acetyl)amino]phenyl]piperidin-3-one] | 1.62 nM |
| CS(=O)(=O)c1ccccc1N1CCC(NC(=O)C2(NC(=O)c3ccc(OCCN4CCOCC4)cc3)CCCCC2)C(=O)C1 (stereo not shown) [Example 155, 4-[N-[1-[N-(4-(2-morpholinethoxy)benzoyl)amino]cyclohexanecarbonyl]amino]-1-(2-methanesulfonylphenyl)piperidin-3-one] | 1.29 nM |
| CS(=O)(=O)c1ccc(F)cc1N1CCC(NC(=O)C2(NC(=O)c3ccc(Cl)s3)CCCCC2)C(=O)C1 (stereo not shown) [Example 117, 4-[N-[1-[N-(5-chloro-thiophen-2-ylcarbonyl)amino]cyclohexanecarbonyl]amino]-1-(5-fluoro-2-methanesulfonylphenyl)piperidin-3-one] | 2.13 nM |
| CS(=O)(=O)c1ccccc1N1CCC(NC(=O)C2(NC(=O)c3cc4cc(OCCN5CCOCC5)ccc4o3)CCCCC2)C(=O)C1 (stereo not shown) [Example 164, 4-[N-[1-[N-(5-(2-morpholinethoxy)benzofuran-2-ylcarbonyl)amino]cyclohexanecarbonyl]amino]-1-(2-methanesulfonylphenyl)piperidin-3-one hydrochloride] | 0.52 nM |
| CC(C)S(=O)(=O)c1ccccc1N1CCC(NC(=O)C2(NC(=O)c3ccc(Cl)s3)CCCCC2)C(=O)C1 (stereo not shown) [Example 116, 4-[N-[1-[N-(5-chloro-thiophen-2-ylcarbonyl)amino]cyclohexanecarbonyl]amino]-1-(2-isopropanesulfonylphenyl)piperidin-3-one] | 2.35 nM |
| O=C(NC1(C(=O)NC2CCN(c3ccccc3-n3cnnn3)CC2=O)CCCCC1)c1cc2ccccc2o1 (stereo not shown) [Example 58, 4-[N-[1-[N-(benzofuran-2-ylcarbonyl)amino]cyclohexanecarbonyl]amino]-1-[2-(tetrazol-1-yl)phenyl]piperidin-3-one] | 4.82 nM |
| CS(=O)(=O)c1ccccc1N1CCC(NC(=O)C2(NC(=O)c3ccc(OCCN4CCCC4)cc3)CCCCC2)C(=O)C1 (stereo not shown) [Example 159, 4-[N-[1-[N-(4-(2-pyrrolidinethoxy)benzoyl)amino]cyclohexanecarbonyl]amino]-1-(2-methanesulfonylphenyl)piperidin-3-one hydrochloride] | 3.25 nM |
| CCSc1ccccc1N1CCC(NC(=O)C2(NC(=O)c3cc4ccccc4o3)CCCCC2)C(=O)C1 (stereo not shown) [Example 42, 4-[N-[1-[N-(benzofuran-2-ylcarbonyl)amino]cyclohexanecarbonyl]amino]-1-(2-ethylthiophenyl)piperidin-3-one] | 3.87 nM |
| CS(=O)(=O)c1ccccc1N1CCC(NC(=O)C2(NC(=O)c3ccc(C(F)(F)F)cc3)CCCCC2)C(=O)C1 (stereo not shown) [Example 154, 4-[N-[1-[N-(4-trifluoromethylbenzoyl)amino]cyclohexanecarbonyl]amino]-1-(2-methanesulfonylphenyl)piperidin-3-one] | 1.37 nM |
